# Assay results reported in patent US9694002B2, “Substituted benzamides and methods of use thereof” (GENENTECH, INC., priority 2013, dated 2017).
# Structures can show the parent of a compound that is named as a salt.
# Molecular target: hNav1.7 (Homo sapiens (Human), UniProt Q15858)
# Experiment: Ligand binding assay: tritiated sulfonamide binding to membranes from cells expressing hNav1.7 and the β1 subunit
# Settings: not given
# Chain of hNav1.7 (Q15858 whole entry): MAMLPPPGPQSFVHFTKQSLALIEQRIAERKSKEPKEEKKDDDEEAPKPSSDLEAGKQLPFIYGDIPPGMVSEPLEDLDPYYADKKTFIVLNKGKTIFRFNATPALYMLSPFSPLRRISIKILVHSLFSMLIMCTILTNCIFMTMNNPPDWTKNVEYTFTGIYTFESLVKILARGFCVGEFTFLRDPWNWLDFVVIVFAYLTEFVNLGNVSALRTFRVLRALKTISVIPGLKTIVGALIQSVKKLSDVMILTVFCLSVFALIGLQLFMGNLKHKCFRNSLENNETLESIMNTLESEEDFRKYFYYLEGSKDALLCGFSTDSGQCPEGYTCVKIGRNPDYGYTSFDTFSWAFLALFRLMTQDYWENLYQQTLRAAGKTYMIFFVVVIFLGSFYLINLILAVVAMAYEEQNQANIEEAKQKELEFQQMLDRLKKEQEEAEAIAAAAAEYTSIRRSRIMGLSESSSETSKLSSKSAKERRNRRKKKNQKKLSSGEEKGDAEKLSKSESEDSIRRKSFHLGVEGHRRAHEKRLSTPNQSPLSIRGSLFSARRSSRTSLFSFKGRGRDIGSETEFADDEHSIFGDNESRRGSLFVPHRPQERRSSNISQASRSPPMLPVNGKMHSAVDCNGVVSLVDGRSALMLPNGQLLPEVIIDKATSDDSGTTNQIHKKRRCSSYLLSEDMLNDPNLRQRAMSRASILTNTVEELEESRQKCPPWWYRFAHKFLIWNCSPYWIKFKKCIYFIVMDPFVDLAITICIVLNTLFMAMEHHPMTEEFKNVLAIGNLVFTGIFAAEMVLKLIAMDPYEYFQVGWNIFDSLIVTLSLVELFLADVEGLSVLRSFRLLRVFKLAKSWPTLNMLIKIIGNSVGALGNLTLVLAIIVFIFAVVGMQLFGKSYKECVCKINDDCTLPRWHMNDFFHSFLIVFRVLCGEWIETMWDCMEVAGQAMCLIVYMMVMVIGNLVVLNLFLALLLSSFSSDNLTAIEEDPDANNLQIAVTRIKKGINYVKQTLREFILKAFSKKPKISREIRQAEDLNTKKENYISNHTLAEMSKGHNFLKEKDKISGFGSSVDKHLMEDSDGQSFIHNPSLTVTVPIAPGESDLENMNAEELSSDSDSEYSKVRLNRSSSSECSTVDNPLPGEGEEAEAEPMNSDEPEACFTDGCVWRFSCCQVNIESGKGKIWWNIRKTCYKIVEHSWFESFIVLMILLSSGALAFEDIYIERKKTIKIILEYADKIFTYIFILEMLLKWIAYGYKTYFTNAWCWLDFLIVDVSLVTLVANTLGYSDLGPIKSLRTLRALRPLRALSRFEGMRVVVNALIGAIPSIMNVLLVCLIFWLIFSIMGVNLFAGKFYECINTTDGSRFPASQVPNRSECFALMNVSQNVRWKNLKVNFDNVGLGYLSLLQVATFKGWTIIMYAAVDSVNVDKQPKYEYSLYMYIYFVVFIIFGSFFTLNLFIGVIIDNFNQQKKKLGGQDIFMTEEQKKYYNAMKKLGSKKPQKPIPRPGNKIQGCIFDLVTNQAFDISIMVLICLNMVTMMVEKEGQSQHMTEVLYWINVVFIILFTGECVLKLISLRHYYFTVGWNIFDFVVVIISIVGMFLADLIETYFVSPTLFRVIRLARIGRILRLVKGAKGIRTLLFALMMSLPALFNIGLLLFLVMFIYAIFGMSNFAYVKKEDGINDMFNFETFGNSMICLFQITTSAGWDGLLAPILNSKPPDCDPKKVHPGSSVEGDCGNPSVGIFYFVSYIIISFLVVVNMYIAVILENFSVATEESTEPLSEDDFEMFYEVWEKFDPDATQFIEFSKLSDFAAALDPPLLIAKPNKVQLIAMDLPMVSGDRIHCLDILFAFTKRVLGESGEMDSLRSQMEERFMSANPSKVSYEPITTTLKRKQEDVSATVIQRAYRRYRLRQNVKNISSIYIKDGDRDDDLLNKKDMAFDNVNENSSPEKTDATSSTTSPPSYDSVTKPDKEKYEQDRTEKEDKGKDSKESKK
# Chain of hNav1.7 (Q07699 19-218 partner): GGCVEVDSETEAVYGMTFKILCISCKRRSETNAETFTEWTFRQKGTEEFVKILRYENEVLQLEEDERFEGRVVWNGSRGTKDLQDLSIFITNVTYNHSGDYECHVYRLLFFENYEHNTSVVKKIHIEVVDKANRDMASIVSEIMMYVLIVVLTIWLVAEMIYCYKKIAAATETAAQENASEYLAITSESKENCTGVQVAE
row,IC50 [nM],Molecule
1,20.2,"CS(=O)(=O)NC(=O)c1cc(C2CC2)c(CN2CCN(S(=O)(=O)c3cc(Cl)cc(Cl)c3)CC2)cc1F [Example 526, 5-cyclopropyl-4-((4-((3,5-dichlorophenyl)sulfonyl)piperazin-1-yl)methyl)-2-fluoro-N-(methylsulfonyl)benzamide, trifluoroacetic acid salt]"

# Same assay, conditions: read-out: Ligand Binding Assay; competition with 100 pM [3H]compound, membranes with hNav1.7 and β1 subunit, room temperature, 18 h
row,Molecule,IC50 [nM]
1,"C[C@@H](c1cc(Cl)cc(Cl)c1)N1CCC(COc2cc(F)c(C(=O)NS(=O)(=O)C3CC3)cc2C2CC2)CC1 (single isomer, unassigned) [Example 270]",5
2,"C[C@@H]1CC[C@@H](COc2cc(F)c(C(=O)NS(C)(=O)=O)cc2C2CC2)CN1[C@@H](C)c1cc(Cl)cc(Cl)c1 (single isomer, unassigned) [Example 342, trifluoroacetic acid salt]",5.7
3,"CS(=O)(=O)NC(=O)c1cc(C2CC2)c(OCC2CCN(Cc3cccc(Cl)c3)CC2)cc1F [Example 92, 4-((1-(3-Chlorobenzyl)piperidin-4-yl)methoxy)-5-cyclopropyl-2-fluoro-N-(methylsulfonyl)benzamide]",30.5
4,"O=C(NS(=O)(=O)C1CC1)c1cc(Cl)c(O[C@@H]2CCCN(Cc3ccc(F)cc3Cl)C2)cc1F [Example 39, (R)-5-chloro-4-((1-(2-chloro-4-fluorobenzyl)piperidin-3-yl)oxy)-N-(cyclopropylsulfonyl)-2-fluorobenzamide, trifluoroacetic acid salt]",6.8
5,"(S)-5-cyclopropyl-N-(cyclopropylsulfonyl)-4-((1-(1-(3,5-dichlorophenyl)ethyl)-4-fluoropiperidin-4-yl)methoxy)-2-fluorobenzamide [Example 350]",4.5
6,"(R)-5-cyclopropyl-4-((1-(3,5-dichlorobenzyl)-2-oxopiperidin-4-yl)methoxy)-2-fluoro-N-(methylsulfonyl)benzamide [Example 234]",170
7,"(S)-5-cyclopropyl-4-((1-(1-(3,5-dichlorophenyl)ethyl)-4-fluoropiperidin-4-yl)methoxy)-2-fluoro-N-(methylsulfonyl)benzamide, trifluoroacetic acid salt [Example 349]",4

# The next lines start with the values.
row,IC50 [nM],Molecule
1,7.4,"C[C@@H](c1cc(Cl)cc(Cl)c1)N1CCC[C@H](COc2cc(F)c(C(=O)NS(C)(=O)=O)cc2C2CC2)C1 (single isomer, unassigned) [Example 338, trifluoroacetic acid salt]"
2,11.1,"C[C@H](c1cc(Cl)cc(Cl)c1)N1CCC[C@H](COc2cc(F)c(C(=O)NS(C)(=O)=O)cc2C2CC2)C1 (single isomer, unassigned) [Example 337, trifluoroacetic acid salt]"
3,14.2,"O=C(NS(=O)(=O)C1CC1)c1cc(C2CC2)c(CN2CCC(Oc3ccc(C(F)(F)F)cn3)CC2)cc1F [Example 477, 5-cyclopropyl-N-(cyclopropylsulfonyl)-2-fluoro-4-((4-((5-(trifluoromethyl)pyridin-2-yl)oxy)piperidin-1-yl)methyl)benzamide, trifluoroacetic acid salt]"
4,1.9,C[C@@H](c1cc(Cl)cc(Cl)c1)N1CCC[C@@H](Oc2cc(F)c(C(=O)NS(C)(=O)=O)cc2C2CC2)C1 [Example 50]
5,2060,"CS(=O)(=O)NC(=O)c1cc(C2CC2)c(OCC2CCN(S(=O)(=O)C3COC3)CC2)cc1F [Example 392, 5-cyclopropyl-2-fluoro-N-(methylsulfonyl)-4-((1-(oxetan-3-ylsulfonyl)piperidin-4-yl)methoxy)benzamide]"

# Molecular target: NaV1.7 (Homo sapiens (Human), UniProt Q15858)
# Sequence (Q15858 other isoform, or with tags, fused parts or gaps): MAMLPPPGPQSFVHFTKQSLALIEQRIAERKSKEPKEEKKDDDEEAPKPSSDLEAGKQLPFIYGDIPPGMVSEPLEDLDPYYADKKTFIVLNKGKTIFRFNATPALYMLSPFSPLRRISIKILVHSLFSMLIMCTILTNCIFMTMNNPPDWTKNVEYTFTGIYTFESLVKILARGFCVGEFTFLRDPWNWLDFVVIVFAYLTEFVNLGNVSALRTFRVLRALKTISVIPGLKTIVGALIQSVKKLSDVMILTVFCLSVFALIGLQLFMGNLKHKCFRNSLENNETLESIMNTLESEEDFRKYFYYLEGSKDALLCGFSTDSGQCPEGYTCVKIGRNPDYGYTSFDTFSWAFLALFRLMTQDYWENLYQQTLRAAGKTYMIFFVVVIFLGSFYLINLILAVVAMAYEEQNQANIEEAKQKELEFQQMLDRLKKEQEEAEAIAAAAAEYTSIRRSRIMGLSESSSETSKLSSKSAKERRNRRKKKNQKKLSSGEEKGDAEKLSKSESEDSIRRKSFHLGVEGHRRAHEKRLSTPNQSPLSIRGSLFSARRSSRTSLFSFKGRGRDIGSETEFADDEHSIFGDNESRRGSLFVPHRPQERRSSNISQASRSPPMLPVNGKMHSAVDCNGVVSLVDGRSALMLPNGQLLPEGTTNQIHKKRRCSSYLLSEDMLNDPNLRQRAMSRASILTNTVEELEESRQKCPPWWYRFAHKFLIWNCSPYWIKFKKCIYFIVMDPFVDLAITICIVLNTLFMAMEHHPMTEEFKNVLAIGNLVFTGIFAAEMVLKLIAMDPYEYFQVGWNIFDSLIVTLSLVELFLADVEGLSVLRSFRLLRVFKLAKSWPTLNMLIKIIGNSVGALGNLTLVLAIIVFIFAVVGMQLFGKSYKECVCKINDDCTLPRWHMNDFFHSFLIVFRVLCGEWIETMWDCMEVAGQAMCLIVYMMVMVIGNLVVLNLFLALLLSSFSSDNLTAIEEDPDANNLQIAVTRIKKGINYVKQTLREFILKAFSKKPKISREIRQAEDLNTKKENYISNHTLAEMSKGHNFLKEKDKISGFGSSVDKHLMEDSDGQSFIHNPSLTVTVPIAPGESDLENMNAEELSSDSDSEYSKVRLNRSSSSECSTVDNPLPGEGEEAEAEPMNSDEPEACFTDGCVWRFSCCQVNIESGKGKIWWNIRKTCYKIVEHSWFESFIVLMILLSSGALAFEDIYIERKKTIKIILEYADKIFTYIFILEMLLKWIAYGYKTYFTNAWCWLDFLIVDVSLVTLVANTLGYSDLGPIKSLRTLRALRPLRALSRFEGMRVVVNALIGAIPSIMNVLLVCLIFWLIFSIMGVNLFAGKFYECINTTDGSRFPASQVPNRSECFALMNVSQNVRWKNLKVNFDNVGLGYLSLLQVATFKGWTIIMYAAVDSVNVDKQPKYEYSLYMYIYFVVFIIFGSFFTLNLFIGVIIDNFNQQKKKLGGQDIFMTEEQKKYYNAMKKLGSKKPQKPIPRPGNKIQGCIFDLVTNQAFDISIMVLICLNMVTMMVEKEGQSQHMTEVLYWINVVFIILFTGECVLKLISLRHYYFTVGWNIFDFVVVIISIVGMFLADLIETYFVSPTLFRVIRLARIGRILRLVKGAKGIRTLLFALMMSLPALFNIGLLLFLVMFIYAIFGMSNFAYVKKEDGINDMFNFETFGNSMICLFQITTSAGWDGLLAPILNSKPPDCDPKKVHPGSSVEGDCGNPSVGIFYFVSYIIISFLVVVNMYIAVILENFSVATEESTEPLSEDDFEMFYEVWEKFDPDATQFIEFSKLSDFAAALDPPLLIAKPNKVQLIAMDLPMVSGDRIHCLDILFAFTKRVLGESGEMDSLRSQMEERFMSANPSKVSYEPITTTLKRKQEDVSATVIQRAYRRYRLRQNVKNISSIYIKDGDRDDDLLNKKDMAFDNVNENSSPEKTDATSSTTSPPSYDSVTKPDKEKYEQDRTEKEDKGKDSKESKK
# Sequence (Q07699 19-218 partner): as the sequence (Q07699 19-218 partner) above
# Experiment: Electrophysiological assay (EP), patch voltage clamp, NaV1.7
# Format: cell-based
# Settings: HEK-293 cells stably expressing human NaV1.7 with β1 subunit, whole-cell patch clamp, held at −60 mV (inactivated state)
# Protocol: NaV1.7 and NaV1.5 cDNAs (NM_002977 and AG 137587; SCN5A, respectively) were stably expressed in HEK-293 cells.
# Control sodium currents were measured in 0.5% DMSO.
# Series resistance compensation was applied (60-80%).
row,IC50 [nM],Molecule
1,5.8,"C[C@@H](c1cc(Cl)cc(Cl)c1)N1CCC(COc2cc(F)c(C(=O)NS(=O)(=O)C3CC3)cc2C2CC2)CC1 (single isomer, unassigned) [Example 270]"
